Assay results from patent publication US20250361210A1, “3,4-DIHYDROQUINOLIN-2(1H)-ONE COMPOUND” (Kissei Pharmaceutical Co., Ltd., priority 2022, published 2025).

Molecular target: T1, TSHR (Mus musculus, UniProt P47750)
T1 construct: host or cells: mice (in vivo)
Test: not given
Settings: mice in which TRH has been administered and mice in which thyroid stimulating antibodies M22 has been administered; cited from earlier work

T1 sequence (P47750 22-764): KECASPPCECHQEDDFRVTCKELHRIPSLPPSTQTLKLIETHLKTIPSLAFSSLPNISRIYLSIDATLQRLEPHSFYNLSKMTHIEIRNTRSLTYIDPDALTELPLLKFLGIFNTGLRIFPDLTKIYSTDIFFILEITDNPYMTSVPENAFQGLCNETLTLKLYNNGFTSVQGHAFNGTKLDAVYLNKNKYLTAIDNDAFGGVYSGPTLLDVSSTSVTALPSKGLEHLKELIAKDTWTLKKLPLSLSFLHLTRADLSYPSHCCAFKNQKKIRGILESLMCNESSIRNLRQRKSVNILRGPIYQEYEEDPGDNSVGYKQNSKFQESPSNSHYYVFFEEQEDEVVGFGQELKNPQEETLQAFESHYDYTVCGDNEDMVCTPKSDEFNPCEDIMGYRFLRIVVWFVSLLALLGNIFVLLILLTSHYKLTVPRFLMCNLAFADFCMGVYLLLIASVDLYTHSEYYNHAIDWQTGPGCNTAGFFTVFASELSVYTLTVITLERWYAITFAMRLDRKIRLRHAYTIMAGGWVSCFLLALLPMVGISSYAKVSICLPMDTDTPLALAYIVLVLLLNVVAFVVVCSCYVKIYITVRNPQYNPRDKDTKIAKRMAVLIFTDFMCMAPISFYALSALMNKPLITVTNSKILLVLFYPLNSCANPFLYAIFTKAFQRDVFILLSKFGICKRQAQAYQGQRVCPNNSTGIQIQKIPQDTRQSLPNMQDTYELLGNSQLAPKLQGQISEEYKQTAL

Q: For `COc1ccc(C2Nc3ccccc3C(=O)N2Cc2ccco2)cc1COc1c(C)cc(NC(C)=O)cc1C` (stereo not drawn) [NCGC00242364], which “blood T4 concentration” value is on record?
A: blood T4 concentration lowering effect

Molecular target: T2, human TSHR (Homo sapiens, UniProt P16473)
T2 construct: expressed in transfected cells
T2 sequence (P16473 21-764): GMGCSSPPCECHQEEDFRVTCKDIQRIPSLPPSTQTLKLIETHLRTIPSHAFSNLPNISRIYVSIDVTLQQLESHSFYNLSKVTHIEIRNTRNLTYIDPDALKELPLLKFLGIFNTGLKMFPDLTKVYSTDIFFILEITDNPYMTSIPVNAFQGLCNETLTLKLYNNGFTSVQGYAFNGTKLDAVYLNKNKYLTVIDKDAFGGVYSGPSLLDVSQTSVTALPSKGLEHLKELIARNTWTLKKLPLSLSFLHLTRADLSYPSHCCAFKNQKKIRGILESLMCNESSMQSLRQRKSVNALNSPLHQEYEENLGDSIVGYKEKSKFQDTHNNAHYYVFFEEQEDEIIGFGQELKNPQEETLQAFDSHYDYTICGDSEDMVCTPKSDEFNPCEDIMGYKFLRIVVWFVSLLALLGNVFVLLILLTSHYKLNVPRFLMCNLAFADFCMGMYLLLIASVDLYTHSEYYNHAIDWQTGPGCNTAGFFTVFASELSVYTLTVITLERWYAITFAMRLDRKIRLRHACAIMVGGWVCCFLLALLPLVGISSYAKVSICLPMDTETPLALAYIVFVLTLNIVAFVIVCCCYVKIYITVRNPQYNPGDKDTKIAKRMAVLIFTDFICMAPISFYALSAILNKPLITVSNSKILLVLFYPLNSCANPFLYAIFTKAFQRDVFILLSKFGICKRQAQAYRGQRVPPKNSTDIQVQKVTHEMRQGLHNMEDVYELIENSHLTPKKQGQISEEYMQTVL
Test: Antagonist activity using TSH-induced cAMP production in human TSHR-stably expressing CHO cells
Type: cell-based
Settings: human TSH 50 ng/mL
Method: Measurement of Antagonist Activity Using TSH-Induced cAMP Production in Human TSHR-Stably Expressing CHO Cells as an Indicator
The human TSHR gene sequence (reference number NM_000369.2) was inserted into the multicloning site of pcDNA3.1(+). The constructed plasmid vector was introduced into CHO cells using the lipofection method to establish human TSHR-stably expressing CHO cells. The obtained cells were seeded at 5×10^4 cells/well in a 96-well poly-D-lysine-coated plate, and cultured in an F12 culture medium containing 10% FBS, 400 μg/mL of G418, 50 U/mL of penicillin and 50 μg/mL of streptomycin under conditions of 37° C. and 5% CO2 for 1 day. After the culture medium was removed, the cells were washed twice with 100 μL of an assay buffer solution (Hanks' Balanced Salt Solution containing 20 mM HEPES and 1 mM IBMX) per well. 30 μL of a test compound-containing assay buffer solution was added to the well and incubated at room temperature for 15 minutes. Then, 30 μL of an assay buffer solution containing human TSH (final concentration 50 ng/mL, R&D Systems, Inc.) was added, and incubated at 37° C. for 1 hour. The supernatant was removed, a Lysis and Detection Buffer 2 (Cisbio) was added, and the mixture was incubated at room temperature for 1 hour to prepare a cell lysate. According to the instruction manual of a cAMP Gs HiRange kit (Cisbio), the cell lysate, d2-labeled cAMP and anti-cAMP Europium Cryptate labeled antibodies (Cisbio) were reacted in a 384-well white microplate. Then, a fluorescence intensity ratio (measurement wavelength 665 nm/620 nm) was measured using a multi-plate reader (PHERAstar FSX, BMG LABTECH, Japan). The fluorescence intensity ratio of each sample was converted to a cAMP content using a standard curve. The cAMP content was converted as a percentage of the control value to calculate the cAMP production rate. The CAMP production rate was plotted against the test compound concentration using Prism (Graph Pad Software Inc.) to calculate the IC50 value. The IC50 of each test compound is shown in the above tables. In the tables, IC50<0.5 μM: A, 0.5 μM≤IC50<3.0 μM: B, 3.0 μM≤IC50<30 μM: C are shown.

Q: With `Cc1ccc2c(c1Cc1cc(F)ccc1Cl)N(C)C(=O)[C@H](NC(N)=O)C2` [Example 59, ((3R)-8-((2-chloro-5-fluorophenyl)methyl)-1,7-dimethyl-2-oxo-1,2,3,4-tetrahydroquinolin-3-yl)urea] as the molecule, how does the IC50 read?
A: < 500 nM

Q: Which IC50 does the source give for `CN1C(=O)[C@H](NC(N)=O)Cc2ccc(F)c(Cc3ccccc3Cl)c21` [Example 60, ((3R)-8-((2-chlorophenyl)methyl)-7-fluoro-1-methyl-2-oxo-1,2,3,4-tetrahydroquinolin-3-yl)urea] here?
A: < 500 nM

Q: Which IC50 does the source give for `CN1C(=O)[C@H](NC(N)=O)Cc2ccc(F)c(Cc3ccccc3C(F)(F)F)c21` [Example 61, ((3R)-7-fluoro-1-methyl-2-oxo-8-((2-(trifluoromethyl)phenyl)methyl)-1,2,3,4-tetrahydroquinolin-3-yl)urea] here?
A: < 500 nM

Q: Which IC50 does the source give for `CN1C(=O)[C@H](NC(N)=O)Cc2ccc(Cl)c(Cc3ccccc3Cl)c21` [Example 62, ((3R)-7-chloro-8-((2-chlorophenyl)methyl)-1-methyl-2-oxo-1,2,3,4-tetrahydroquinolin-3-yl)urea] here?
A: < 500 nM

Q: Which IC50 does the source give for `Cc1ccccc1Cc1c(F)ccc2c1N(C)C(=O)[C@H](NC(N)=O)C2` [Example 63, ((3R)-7-fluoro-1-methyl-8-((2-methylphenyl)methyl)-2-oxo-1,2,3,4-tetrahydroquinolin-3-yl)urea] here?
A: < 500 nM

Q: For `CN1C(=O)[C@H](NC(N)=O)Cc2ccc(Cl)c(Cc3ccccc3F)c21` [Example 64, ((3R)-7-chloro-8-((2-fluorophenyl)methyl)-1-methyl-2-oxo-1,2,3,4-tetrahydroquinolin-3-yl)urea], which IC50 is on record?
A: 500 to 3000 nM

Q: For `CN1C(=O)[C@H](NC(N)=O)Cc2ccc(Cl)c(Cc3cccc(F)c3)c21` [Example 65], which IC50 is on record?
A: 500 to 3000 nM

Q: For `Cc1ccc2c(c1Cc1cccc(F)c1)N(C)C(=O)[C@H](NC(N)=O)C2` [Example 67], which IC50 is on record?
A: 3000 to 30000 nM

Q: With `Cc1ccc(F)cc1Cc1cccc2c1N(C)C(=O)[C@H](NC(N)=O)C2` [Example 68, ((3R)-8-((5-fluoro-2-methylphenyl)methyl)-1-methyl-2-oxo-1,2,3,4-tetrahydroquinolin-3-yl)urea] as the molecule, how does the IC50 read?
A: < 500 nM

Q: With `CN1C(=O)[C@H](NC(N)=O)Cc2ccc(Cl)c(Oc3cc(F)ccc3F)c21` [Example 69, ((3R)-7-chloro-8-(2,5-difluorophenoxy)-1-methyl-2-oxo-1,2,3,4-tetrahydroquinolin-3-yl)urea] as the molecule, how does the IC50 read?
A: < 500 nM

Q: Which IC50 does the source give for `Cc1ccc2c(c1Oc1cc(F)ccc1C(F)F)N(C)C(=O)[C@H](NC(N)=O)C2` [Example 70, ((3R)-8-(2-(difluoromethyl)-5-fluorophenoxy)-1,7-dimethyl-2-oxo-1,2,3,4-tetrahydroquinolin-3-yl)urea] here?
A: < 500 nM

Q: With `CN1C(=O)[C@H](NC(N)=O)Cc2ccc(CO)c(Oc3cc(F)ccc3Cl)c21` [Example 71, ((3R)-8-(2-chloro-5-fluorophenoxy)-7-(hydroxymethyl)-1-methyl-2-oxo-1,2,3,4-tetrahydroquinolin-3-yl)urea] as the molecule, how does the IC50 read?
A: < 500 nM

Q: With `CN1C(=O)[C@H](NC(N)=O)Cc2ccc(C(F)F)c(Oc3cc(F)ccc3Cl)c21` [Example 72, ((3R)-8-(2-chloro-5-fluorophenoxy)-7-(difluoromethyl)-1-methyl-2-oxo-1,2,3,4-tetrahydroquinolin-3-yl)urea] as the molecule, how does the IC50 read?
A: < 500 nM

Q: For `CN1C(=O)[C@H](NC(N)=O)Cc2ccc(CF)c(Oc3cc(F)ccc3Cl)c21` [Example 73, ((3R)-8-(2-chloro-5-fluorophenoxy)-7-(fluoromethyl)-1-methyl-2-oxo-1,2,3,4-tetrahydroquinolin-3-yl)urea], which IC50 is on record?
A: < 500 nM

Q: For `CN1C(=O)[C@H](NC(N)=O)Cc2ccc(C(F)(F)F)c(Oc3cc(F)ccc3Cl)c21` [Example 74, ((3R)-8-(2-chloro-5-fluorophenoxy)-1-methyl-2-oxo-7-(trifluoromethyl)-1,2,3,4-tetrahydroquinolin-3-yl)urea], which IC50 is on record?
A: < 500 nM

Q: For `CN1C(=O)[C@H](NC(N)=O)Cc2ccc(C(C)(F)F)c(Oc3cc(F)ccc3Cl)c21` [Example 75, ((3R)-8-(2-chloro-5-fluorophenoxy)-7-(1,1-difluoroethyl)-1-methyl-2-oxo-1,2,3,4-tetrahydroquinolin-3-yl)urea], which IC50 is on record?
A: < 500 nM

Q: For `CCc1ccc2c(c1Oc1cc(F)ccc1Cl)N(C)C(=O)[C@H](NC(N)=O)C2` [Example 76, ((3R)-8-(2-chloro-5-fluorophenoxy)-7-ethyl-1-methyl-2-oxo-1,2,3,4-tetrahydroquinolin-3-yl)urea], which IC50 is on record?
A: < 500 nM

Q: With `CC(c1ccccc1Cl)c1cccc2c1N(C)C(=O)[C@H](NC(N)=O)C2` (stereo partly drawn) [Example 77, ((3R)-8-(1-(2-chlorophenyl)ethyl)-1-methyl-2-oxo-1,2,3,4-tetrahydroquinolin-3-yl)urea] as the molecule, how does the IC50 read?
A: < 500 nM

Q: Which IC50 does the source give for `CC(c1ccccc1C(F)(F)F)c1cccc2c1N(C)C(=O)[C@H](NC(N)=O)C2` (stereo partly drawn) [Example 78, ((3R)-1-Methyl-2-oxo-8-(1-(2-(trifluoromethyl)phenyl)ethyl)-1,2,3,4-tetrahydroquinolin-3-yl)urea] here?
A: < 500 nM

Q: Which IC50 does the source give for `CC(c1cc(F)ccc1Cl)c1cccc2c1N(C)C(=O)[C@H](NC(N)=O)C2` (stereo partly drawn) [Example 79] here?
A: < 500 nM

Q: Which IC50 does the source give for `CNC(=O)N[C@@H]1Cc2ccc(C)c(Oc3cc(F)ccc3Cl)c2N(C)C1=O` [Example 80, 1-((3R)-8-(2-chloro-5-fluorophenoxy)-1,7-dimethyl-2-oxo-1,2,3,4-tetrahydroquinolin-3-yl)-3-methylurea] here?
A: < 500 nM

Q: For `CC(=O)N[C@@H]1Cc2ccc(C)c(Oc3cc(F)ccc3Cl)c2N(C)C1=O` [Example 81, N-((3R)-8-(2-chloro-5-fluorophenoxy)-1,7-dimethyl-2-oxo-1,2,3,4-tetrahydroquinolin-3-yl)acetamide], which IC50 is on record?
A: < 500 nM

Q: With `Cc1ccc2c(c1Oc1cc(F)ccc1Cl)N(C)C(=O)[C@H](NC(=O)C1CC1)C2` [Example 82] as the molecule, how does the IC50 read?
A: < 500 nM

Q: Which IC50 does the source give for `Cc1ccc2c(c1Oc1cc(F)ccc1Cl)N(C)C(=O)[C@H](NC(=O)C(Cl)Cl)C2` [Example 83] here?
A: < 500 nM

Q: With `CN1C(=O)[C@H](NC(=O)C2CC2)Cc2cccc(Oc3cc(F)ccc3Cl)c21` [Example 84] as the molecule, how does the IC50 read?
A: < 500 nM

Q: Which IC50 does the source give for `Cc1ccc2c(c1Oc1cc(F)ccc1Cl)N(C)C(=O)[C@H](NC(=O)CC(F)(F)F)C2` [Example 85, N-((3R)-8-(2-chloro-5-fluorophenoxy)-1,7-dimethyl-2-oxo-1,2,3,4-tetrahydroquinolin-3-yl)-3,3,3-trifluoropropanamide] here?
A: < 500 nM
